Test results published in patent US20240002435A1, “SYNTHETIC PEPTIDE AND APPLICATION THEREOF” (Wuhan Innerse Pharmaceutical Inc., priority 2021, published 2024).
“And” between values parts separate entries of the source, which are not always exact repeats. Identical values can stand only once. Where no end group is shown, it is not given here. [ ]: non-standard residue; d: D form. βAla = NCCC(=O)O

How the values were obtained:
[1] = test system: rat model of cerebral ischemia (middle cerebral artery occlusion, MCAO); assay: MCAO rat cerebral ischemia model, blinded behavioral scoring 0-5 points (Example 9); type: in vivo, SD rats; conditions: 3 mg/kg tail vein; for Behavioral score, mean value / Behavioral score: 22-24 h after suturation, scale 0-5 points; for Behavioral score, mean value: mean of 6 rats
Description: (§1) In order to determine the application of the synthetic peptides provided by the present invention in neurological diseases, the present invention uses SD rats as experimental objects, and performs middle cerebral artery occlusion method (MCAO) to prepare rat model of cerebral ischemia. These rats were injected drugs intravenously 1-2 hours after ischemia, and a behavioral observation and scoring was conducted for each animal after 22-24 hours. After the behavioral observation, the experimental rats were euthanized and their brains were removed, cut to sections and stained with TTC for quantitative analysis, and the cerebral infarct volume % was calculated.
(§2) The experimental SD rat was weighed and anesthetized with chloral hydrate. After anesthesia, the limbs of the rat were fixed, and the rat was placed in a supine position, connected to the small-animal monitor, and monitored for important physiological parameters such as body temperature, blood pressure and heart rate, etc. The rat's neck was shaved and disinfected with 75% alcohol cotton ball. A middle incision of about 2 cm length was then made on the neck of the experimental rat, and the submandibular gland of the rat was bluntly separated while avoiding damage to the gland. Then, the left common carotid artery (CCA) of the experimental rat was bluntly separated, and the internal carotid artery (ICA) and external carotid artery (ECA) were carefully separated upward along the CCA. Any damage to vagus nerves was avoided during the separation. The CCA and ICA were clamped respectively with two artery clamps, and the distal end of the ECA was cut off and a silicone suture emboli was inserted into the ECA “port” to the ICA artery clamp, then the artery clamp was quickly loosened and the tip of the suture emboli was put in through the artery clamp quickly before clamping the ICA again. This step was repeated and the suture emboli was put in further until the black mark of the suture emboli reached the bifurcation of the ECA and ICA, and the tip of the suture emboli blocked the middle cerebral artery and then the ECA “port” and the suture emboli was tied tightly using a thread in order to prevent the “escape” of suture emboli or bleeding after the rat waked up. The artery clamps on the CCA and ICA were then loosed and removed to restore the tissue to its original position, and an appropriate amount of penicillin was applied to prevent wound infection. A medical suture needle with thread was used to suture, and the wound was disinfected using povidone-iodine again after the suturation. The experimental rats were monitored with the small-animal monitor to evaluate if their physiological parameters were normal, and the rats were placed on a small-animal electric blanket to keep their body temperature until they waked up, and placed in animal cages.
(§3) The drug to be tested was prepared as 3 mg/mL solution. The drug was dosed via tail vein 1-2 h after the suturation.
(§4) During the drug administration, the rat was fastened with a fastening device, and the drug to be tested was injected into the tail vein of the rat at 3 mg/kg using 1 mL syringe, the drug was injected slowly to reduce the cardiopulmonary load of the experimental rat.
(§5) The animals were divided into different test groups, with 6 rats for each group.
(§6) Drug groups S1 (NA1), S8 (beta-Ala-His-Gly) and S9 (Gly-beta-Ala-His): administered via tail vein after the suturation;
The behavioral observation and scoring were performed on each animal 22-24 h after the suturation.

[2] = test system: patients with acute ischemic stroke (AIS) undergoing endovascular thrombectomy; conditions: 2.6 mg/kg intravenous injection; cited from earlier work
[3] = test system: suture-embolized MCAO model, rat cerebral ischemic stroke; assay: Dose-effect experiment, suture-embolized MCAO ischemia-reperfusion, TTC infarct size and inhibition rate (Example 10); type: in vivo, Sprague-Dawley (SD) rats
Description: The establishment of rat model: the rats were placed in an anesthesia induction box filled with 3.0% isoflurane for anesthesia induction. Anesthesia-induced animals were transferred to the operating table, and anesthesia was maintained with 2.0%˜2.5% isoflurane at 200 mL/min using a small-animal gas anesthesia machine, and the eyelid reflex and pain response of the rats were observed. The surgery can be started only after the eyelid reflex response and the pain response on limbs and tail disappeared. • A. Isolating and exposing blood vessels: the skin of the surgical area was shaved, and the rat was placed under a surgical microscope. The skin of the rat was cut along the midline with ophthalmic scissors, with a cut of about 2 cm length. Through the right neck of the rat, the muscle tissue of the right neck was bluntly isolated and opened with a microforcep to expose the right common carotid artery (CCA), and then isolated upward along the common carotid artery to further expose the external carotid artery (ECA) and internal carotid artery (ICA); • B. The ECA was ligated and the ICA was temporarily clamped; the proximal end and distal end of CCA were threaded separately, the distal end was tied tightly and the proximal end was tied with a loose knot, and a small incision was made between the two threads; • C. Inserting the suture emboli: A No. 4-0 suture emboli was inserted through the incision of CCA, pushed slowly and gently into the internal carotid artery, and stopped at the artery clamp of ICA, the pre-set thread was tied tightly (to avoid severe bleeding when pushing the suture emboli), then the artery clamp that blocked the blood flow of ICA was removed, and the suture emboli was immediately pushed into ICA until entering into the cranium. At the moment, one should be careful not to insert the suture emboli into the pterygopalatine artery, which is another branch of the internal carotid artery (the pterygopalatine artery is one of the extra-cranial branches of ICA; when the suture emboli entered the pterygopalatine artery to a depth of about 10 mm, it cannot be inserted further, at the moment one should slightly draw back the suture emboli, adjust the direction, and insert again); • D. Fixing the suture emboli and suturing the incision: if one felt slight resistance when the suture emboli was inserted about 18 mm depth from the bifurcation of the common carotid artery, it means that the tip of the suture emboli has entered into the cerebral anterior artery (ACA), and the side wall of the suture emboli has blocked the opening of the middle cerebral artery; at the moment, the insertion was terminated and the time was recorded. […]

[4] = test system: experimental cerebral ischemia-reperfusion in animals; conditions: cynomolgus monkeys, preclinical ischemic stroke model; cited from earlier work
[5] = test system: rat model of cerebral ischemia (middle cerebral artery occlusion, MCAO); assay: MCAO rat cerebral ischemia model, TTC staining, cerebral infarct volume (Example 9); type: in vivo, SD rats; conditions: for Cerebral infarction volume (TTC quantification), mean value / Cerebral infarction volume (TTC quantification): 3 mg/kg tail vein 1-2 h after suturation, read 22-24 h; for Cerebral infarction volume (TTC quantification), mean value: mean of 6 rats
Description: as §1, §2, §3, §4, §5, §6
After behavioral observations, experimental rats were euthanized and their brains were removed. The brain tissue was transversely cut into 6 slices with a 2 mm thickness, then transferred to TTC staining solution, incubated in a 37° C. incubator without light for 10 min, and taken pictures. The TTC-stained brain tissue and the remaining non-stained brain tissue were stored at −20° C.
Quantitative analysis of photos after TTC staining was performed using Image J software. […]

[6] = test system: suture-embolized MCAO model, rat cerebral ischemic stroke; assay: Dose-effect experiment, rat neurological function score NSS (Example 10); type: in vivo, Sprague-Dawley (SD) rats; conditions: mean ± SD
Description: Measurement time: 24 hours before and after modeling;
Measurement method: a motor function test, sensory test, balance test, and reflex and abnormal behavior test were performed on animals, according to the rat neurological function score scale (NS S) for details.

[7] = Dose-effect experiment, body weight of MCAO model animals (Example 10); conditions: mean ± SD
Description: The establishment of rat model: the rats were placed in an anesthesia induction box filled with 3.0% isoflurane for anesthesia induction. Anesthesia-induced animals were transferred to the operating table, and anesthesia was maintained with 2.0%˜2.5% isoflurane at 200 mL/min using a small-animal gas anesthesia machine, and the eyelid reflex and pain response of the rats were observed. The surgery can be started only after the eyelid reflex response and the pain response on limbs and tail disappeared. • A. Isolating and exposing blood vessels: the skin of the surgical area was shaved, and the rat was placed under a surgical microscope. The skin of the rat was cut along the midline with ophthalmic scissors, with a cut of about 2 cm length. […]
Animals measured: all the surviving experimental animals planned to be measured;
Measurement time: the body weight was measured at least twice during the accommodation, and each batch of rats were weighed once on the day before the surgery and on the day of dissection to calculate the amount of drug administered and the anesthetic applied; the body weight was measured twice a week after the surgery.

[8] = test system: suture-embolized MCAO model, rat cerebral ischemic stroke; assay: Dose-effect experiment, Bederson score (Example 10); type: in vivo, Sprague-Dawley (SD) rats; conditions: 3 mg/kg group; 1 hour after ischemia, i.e. before dosing (model check); mean ± SD
Description: Measurement time: 1 hour after ischemia on the day of modeling;
Animals measured: all the animals survived in surgery;
Measurement method: the Bederson scoring standard was used to score animals.

[9] = 3 mg/kg group, D 0 = 1 day before surgery (baseline)
[10] = 3 mg/kg i.v., D 2 = 1 day after surgery

Row | Substance | Behavioral score, mean value [1] | Behavioral score ([1]; rat No. 1) | Behavioral score ([1]; rat No. 2) | Behavioral score ([1]; rat No. 3) | Behavioral score ([1]; rat No. 4) | Behavioral score ([1]; rat No. 5) | Behavioral score ([1]; rat No. 6) | Cerebral infarction volume (TTC quantification), mean value [5] | Cerebral infarction volume (TTC quantification) ([5]; rat No. 1) | Cerebral infarction volume (TTC quantification) ([5]; rat No. 2) | Cerebral infarction volume (TTC quantification) ([5]; rat No. 3) | Cerebral infarction volume (TTC quantification) ([5]; rat No. 4) | Cerebral infarction volume (TTC quantification) ([5]; rat No. 5) | Cerebral infarction volume (TTC quantification) ([5]; rat No. 6) | further results
1 | YGRKKRRQRRRKLSSIESDV [S1, Nerinetide] | 2.0 | 2 | 2 | 2 | 2 | 1 | 3 | 0.157 | 0.187 | 0.218 | 0.153 | 0.145 | 0.107 | 0.134 | Behavioral score, mean value ([1]; listed as NA1): 2.0±0.6; Effect on patient's prognosis [2]: improved patient's prognosis; Infarct weight ([3]; 3 mg/kg i.v. once within 10 min after reperfusion, 24 h after treatment, mean ± SD): 0.24 ± 0.02 g; Infarct size ([3]; 3 mg/kg i.v. once within 10 min after reperfusion, TTC 24 h after treatment, infarct weight / whole brain weight, mean ± SD): 16.74±3.14%; Inhibition rate of cerebral infarction ([3]; 3 mg/kg i.v., calculated from infarct size vs model control group): 33%; Effect on infarct size of experimental cerebral ischemia-reperfusion [4]: reduce the infarct size; NSS score D 0 [6, 9]: 0 ± 0; NSS score D 2 [6, 10]: 8.00±0.76; Weight D 0 [7, 9]: 251.91 ± 8.69 g; Weight D 2 [7, 10]: 203.7 ± 10.94 g; Bederson [8]: 3 ± 0
2 | Gly-[βAla]-His [S9] | 2.0 | 3 | 3 | 2 | 2 | 1 | 1 | 0.197±0.059 and 0.197 | 0.239 | 0.206 | 0.208 | 0.263 | 0.171 | 0.095 | Behavioral score, statistical comparison with S1 (NA1) [1]: not statistically different from S1; Behavioral score, mean value ([1]; listed as Gly-beta-Ala-His): 2.0±0.9; Infarct volume, statistical comparison with S1 (NA1) ([5]; 3 mg/kg tail vein): not statistically different from S1
